Assays:
Format in all cases: cell-based
[1] = target: T1, alpha2B receptor (Homo sapiens, UniProt P18089); test: Receptor Selection and Amplification Technology (RSAT) assay, alpha2B; conditions: for EC50: read-out: Alpha 2B EC50; for Alpha 2B IA (intrinsic activity): ratio of maximal effect of drug to maximal effect of standard full agonist brimonidine (UK14304)
T1 construct: expressed in transfected cells; host or cells: NIH-3T3 cells
T1 sequence (P18089 1-450): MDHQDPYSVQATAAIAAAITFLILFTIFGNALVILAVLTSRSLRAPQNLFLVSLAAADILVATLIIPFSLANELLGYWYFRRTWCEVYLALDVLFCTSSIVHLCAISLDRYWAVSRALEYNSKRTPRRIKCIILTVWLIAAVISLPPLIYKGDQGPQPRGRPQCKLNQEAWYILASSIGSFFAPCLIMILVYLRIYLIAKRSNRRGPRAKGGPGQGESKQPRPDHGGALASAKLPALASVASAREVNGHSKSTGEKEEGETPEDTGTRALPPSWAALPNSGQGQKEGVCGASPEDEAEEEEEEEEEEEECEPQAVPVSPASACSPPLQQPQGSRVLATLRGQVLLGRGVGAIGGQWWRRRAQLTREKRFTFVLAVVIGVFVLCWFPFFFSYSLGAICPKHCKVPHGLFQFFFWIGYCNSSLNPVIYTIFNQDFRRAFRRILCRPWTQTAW
Method: (§1) The RSAT assay measures a receptor-mediated loss of contact inhibition that results in selective proliferation of receptor-containing cells in a mixed population of confluent cells. The increase in cell number is assessed with an appropriate transfected marker gene such as […]-galactosidase, the activity of which can be easily measured in a 96-well format. Receptors that activate the G protein, Gq, elicit this response. Alpha2 receptors, which normally couple to Gi, activate the RSAT response when coexpressed with a hybrid Gq protein that has a Gi receptor recognition domain, called Gq/i5.
(§2) NIH-3T3 cells are plated at a density of 2×10^6 cells in 15 cm dishes and maintained in Dulbecco's modified Eagle's medium supplemented with 10% calf serum. One day later, cells are cotransfected by calcium phosphate precipitation with mammalian expression plasmids encoding p-SV-[…]-galactosidase (5-10 μg), receptor (1-2 μg) and G protein (1-2 μg). 40 μg salmon sperm DNA may also be included in the transfection mixture. Fresh media is added on the following day and 1-2 days later, cells are harvested and frozen in 50 assay aliquots. Cells are thawed and 100 μl added to 100 μl aliquots of various concentrations of drugs in triplicate in 96-well dishes. Incubations continue 72-96 hr at 37° C. After washing with phosphate-buffered saline, […]-galactosidase enzyme activity is determined by adding 200 μl of the chromogenic substrate (consisting of 3.5 mM o-nitrophenyl-[…]-D-galactopyranoside and 0.5% nonidet P-40 in phosphate buffered saline), incubating overnight at 30° C. and measuring optical density at 420 nm. The absorbance is a measure of enzyme activity, which depends on cell number and reflects a receptor-mediated cell proliferation. The efficacy or intrinsic activity is calculated as a ratio of the maximal effect of the drug to the maximal effect of a standard full agonist for each receptor subtype. Brimonidine, also called UK14304, the chemical structure of which is shown below, is used as the standard agonist for the alpha2A, alpha2B and alpha2C receptors. The EC50 is the concentration at which the drug effect is half of its maximal effect.
(§3) The results of the RSAT assay with several exemplary compounds of the invention are disclosed in Table 1 above together with the chemical formulas of these exemplary compounds. EC50 values are nanomolar. NA stands for “not active” at concentrations less than 10 micromolar. IA stands for “intrinsic activity.”

[2] = target: T2, alpha2A receptor (Homo sapiens, UniProt P08913); test: Receptor Selection and Amplification Technology (RSAT) assay, alpha2A
T2 construct: expressed in transfected cells; host or cells: NIH-3T3 cells
T2 sequence (P08913 1-465): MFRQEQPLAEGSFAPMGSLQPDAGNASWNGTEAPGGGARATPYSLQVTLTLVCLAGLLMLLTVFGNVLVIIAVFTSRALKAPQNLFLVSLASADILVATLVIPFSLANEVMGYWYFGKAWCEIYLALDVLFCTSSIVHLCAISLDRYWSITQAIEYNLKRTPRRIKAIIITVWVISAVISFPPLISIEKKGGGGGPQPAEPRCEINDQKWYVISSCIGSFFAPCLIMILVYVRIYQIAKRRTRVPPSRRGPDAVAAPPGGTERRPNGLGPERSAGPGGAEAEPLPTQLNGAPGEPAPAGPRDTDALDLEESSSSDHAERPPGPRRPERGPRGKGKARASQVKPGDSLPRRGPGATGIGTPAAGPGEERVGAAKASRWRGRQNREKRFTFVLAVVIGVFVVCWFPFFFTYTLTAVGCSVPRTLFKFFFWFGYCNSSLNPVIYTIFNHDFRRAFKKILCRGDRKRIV
Method: as §1, §2, §3

[3] = target: T3, alpha2C receptor (Homo sapiens, UniProt P18825); test: Receptor Selection and Amplification Technology (RSAT) assay, alpha2C; conditions: for Alpha 2C EC50 / EC50: RSAT, transfected NIH-3T3 cells with Gq/i5, not active = not active at concentrations less than 10 micromolar; for EC50: read-out: Alpha 2C EC50; for Alpha 2C IA (intrinsic activity): ratio of maximal effect of drug to maximal effect of standard full agonist brimonidine (UK14304)
T3 construct: expressed in transfected cells; host or cells: NIH-3T3 cells
T3 sequence (P18825 1-462): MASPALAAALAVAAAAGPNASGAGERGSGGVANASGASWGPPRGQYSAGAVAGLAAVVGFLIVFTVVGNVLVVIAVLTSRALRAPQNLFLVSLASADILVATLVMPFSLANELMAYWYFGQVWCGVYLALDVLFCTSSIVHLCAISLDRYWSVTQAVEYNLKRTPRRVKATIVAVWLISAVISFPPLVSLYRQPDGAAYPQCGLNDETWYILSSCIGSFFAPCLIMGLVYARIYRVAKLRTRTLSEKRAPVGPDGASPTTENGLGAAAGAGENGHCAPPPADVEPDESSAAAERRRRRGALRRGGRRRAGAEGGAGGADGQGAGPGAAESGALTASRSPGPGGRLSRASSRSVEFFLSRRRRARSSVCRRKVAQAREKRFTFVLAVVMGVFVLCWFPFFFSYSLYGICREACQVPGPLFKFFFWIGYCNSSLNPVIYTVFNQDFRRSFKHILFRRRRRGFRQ
Method: as §1, §2, §3

[4] = RSAT, transfected NIH-3T3 cells with Gq/i5, not active = not active at concentrations less than 10 micromolar

EC50 [1, 4] [nM] | Alpha 2B IA (intrinsic activity) [1] | Alpha 2A EC50 [2, 4] | Alpha 2C EC50 [3] | EC50 [3] [nM] | Alpha 2C IA (intrinsic activity) [3] | Alpha 2B EC50 [1, 4] | EC50 ([2]; RSAT, transfected NIH-3T3 cells with Gq/i5, not active = not active at concentrations less than 10 micromolar, read-out: Alpha 2A EC50) [nM] | Alpha 2A IA (intrinsic activity) ([2]; ratio of maximal effect of drug to maximal effect of standard full agonist brimonidine (UK14304)) | Compound
176 | 0.92 | not active | not active | – | – | – | – | – | N#C/N=C(/NCCF)N[C@H]1CCc2ccccc21
296 | 0.37 | not active | not active | – | – | – | – | – | N#C/N=C(/NCCF)NC1CCCc2c(Cl)cccc21 (centres unmarked)
941 | 0.85 | not active | not active | – | – | – | – | – | N#C/N=C(/NCCF)NC1CCc2cccc(Br)c21 (centres unmarked)
560 | 0.5 | not active | not active | – | – | – | – | – | N#C/N=C(\NCCF)NC1CCc2ccc(F)c(F)c21 (centres unmarked)
783 | 0.35 | not active | not active | – | – | – | – | – | N#C/N=C(/NCCF)NC1Cc2ccccc2C1
642 | 0.7 | not active | not active | – | – | – | – | – | N#C/N=C(\NCCF)NC1CCc2cccc(Cl)c21 (centres unmarked)
232 | 0.31 | not active | – | 946 | 0.36 | – | – | – | N#C/N=C(\NCCF)NC1CCc2ccc(Cl)cc21 (centres unmarked)
167 | 0.42 | not active | – | 376 | 0.4 | – | – | – | N#C/N=C(\NCCF)NC1CCc2ccc(F)cc21 (centres unmarked)
98.6 | 0.73 | not active | not active | – | – | – | – | – | N#C/N=C(\NCCF)NC(Cc1ccccc1)c1ccccc1 (centres unmarked)
1040 | 0.59 | not active | not active | – | – | – | – | – | CCc1cccc2c1CCC2N/C(=N\C#N)NCCF (centres unmarked)
2570 | 0.74 | not active | not active | – | – | – | – | – | N#C/N=C(/NCCF)NC1CCc2c(Br)cccc21 (centres unmarked)
231 | 0.69 | not active | – | 1970 | 0.42 | – | – | – | N#C/N=C(/NCCF)NC1CCCc2c(F)cccc21 (centres unmarked)
– | 0.35 | not active | not active | – | – | high | – | – | CCc1cccc2c1CCCC2N/C(=N\C#N)NCCF (centres unmarked)
475 | 0.65 | not active | not active | – | – | – | – | – | N#C/N=C(\NCCF)NC1CCc2cccc(F)c21 (centres unmarked)
78.9 | 0.93 | not active | – | 472 | 0.84 | – | – | – | Cc1cccc(CN/C(=N/C#N)NCCF)c1Cl
94.3 | 1.06 | not active | – | 1480 | 0.41 | – | – | – | Cc1cccc2c1CCCC2N/C(=N\C#N)NCCF (centres unmarked)
73.9 | 0.95 | not active | – | 914 | 0.51 | – | – | – | Cc1cccc2c1CCC2N/C(=N\C#N)NCCF (centres unmarked)
518 | 0.34 | not active | not active | – | – | – | – | – | Cc1ccc2c(c1)C(N/C(=N\C#N)NCCF)CC2 (centres unmarked)
988 | 0.3 | not active | not active | – | – | – | – | – | N#C/N=C(/NCCF)NC1CCc2c(Cl)cccc21 (centres unmarked)
282 | 0.36 | not active | not active | – | – | – | – | – | N#C/N=C(/NCCF)NC1CCc2c(F)cccc21 (centres unmarked)
60.1 | 1.09 | – | – | 1530 | 0.46 | – | 759 | 0.35 | Cc1cccc2c1CC[C@@H]2N/C(=N\C#N)NCCF
1450 | 0.82 | not active | – | 2640 | 0.32 | – | – | – | N#C/N=C(/NCCF)NCc1cccc(Br)c1
341 | 0.87 | not active | – | 358 | 0.58 | – | – | – | N#C/N=C(/NCCF)NCc1cccc2c1OCC2
417 | 0.47 | not active | – | 1780 | 0.33 | – | – | – | N#C/N=C(/NCCF)NC1CCc2ccccc21 (centres unmarked)

Source: patent publication US7884244B2, “Therapeutic fluoroethylcyano guanidines” (Allergan, Inc., priority 2007, dated 2011)
